Reference: ChEMBL document CHEMBL5500324, “The potential of marine-derived piperazine alkaloids: Sources, structures and bioactivities” (Eur J Med Chem, 2024)
Converted amounts (≈) assume the structure as drawn. Each block holds one compound with its values, some of them ahead of it.

Assays:
HT-29 [1] = assay: Cytotoxicity against human HT-29 cells assessed as inhibition of cell growth; type: functional, cell-based
A549 [2] = assay: Cytotoxicity against human A549 cells; type: functional, cell-based
ECV-304 = assay: Cytotoxicity against human ECV-304 cells; type: functional, cell-based
A549 [3] = assay: Cytotoxicity against human A549 cells assessed as inhibition of cell growth; type: functional, cell-based
SK-MEL-28 [4] = assay: Cytotoxicity against human SK-MEL-28 cells assessed as inhibition of cell growth; type: functional, cell-based
CAL-27 = assay: Cytotoxicity against human CAL-27 cells; type: functional, cell-based
NCI-H929 = assay: Cytotoxicity against human NCI-H929 cells; type: functional, cell-based
P388 [5] = assay: Cytotoxicity against mouse P388 cells assessed as inhibition of cell growth; type: functional, cell-based
MCF7 = assay: Cytotoxicity against human MCF7 cells assessed as reduction in cell growth measured after 72 hrs by MTT assay; type: functional, cell-based; settings: MCF7, 72 h
BGC-823 = assay: Cytotoxicity against human BGC-823 cells assessed as reduction in cell growth measured after 72 hrs by MTT assay; type: functional, cell-based; settings: BGC-823, 72 h
HeLa [6] = assay: Cytotoxicity against human HeLa cells assessed as reduction in cell viability measured for 24 hrs by MTT assay; type: functional, cell-based
K562 = assay: Antiproliferative activity against human K562 cells assessed as reduction in cell growth incubated for 72 hrs by MTT assay; type: functional, cell-based; settings: K562, 72 h
HL-60 [7] = assay: Antiproliferative activity against human HL-60 cells assessed as reduction in cell growth incubated for 72 hrs by MTT assay; type: functional, cell-based; settings: HL-60, 72 h
P388 [8] = assay: Cytotoxicity against mouse P388 cells assessed as cell growth inhibition; type: functional; settings: read-out: ED50 (the source's name)
[9] = Antitumor activity against human A375.S2 cells assessed as cell growth inhibition; type: functional, cell-based
HL-60 [10] = assay: Anticancer activity against human HL-60 cells assessed as inhibition of cell growth measured after 24 hrs by CCK-8 assay; type: functional, cell-based; settings: HL-60, 24 h
A549 [11] = assay: Anticancer activity against human A549 cells assessed as reduction in cell growth; type: functional, cell-based
P388 [12] = assay: Antitumor activity against mouse P388 cells assessed as cell growth inhibition; type: functional, cell-based
HeLa [13] = assay: Antitumor activity against human HeLa cells assessed as inhibition of cell growth by MTT assay; type: functional, cell-based
Bel-7402 = assay: Anticancer activity against human Bel-7402 cells assessed as reduction in cell growth measured for 24 hrs by MTT assay; type: functional, cell-based; settings: Bel-7402, 24 h
P388 [14] = assay: Cytotoxicity against mouse P388 cells assessed as inhibition of cell growth incubated for 48 hrs; type: functional, cell-based; settings: P388, 48 h
BC = assay: Cytotoxicity against human BC cells assessed as inhibition of cell growth; type: functional, cell-based
HCT-116 = assay: Antiproliferative activity against human HCT-116 cells assessed as reduction in cell viability incubated for 24 hrs by MTT assay; type: functional, cell-based; settings: HCT-116, 24 h
DU-145 = assay: Cytotoxicity against human DU-145 cells assessed as cell growth inhibition measured after 48 hrs by MTT assay; type: functional, cell-based; settings: DU-145, 48 h
QG-56 = assay: Cytotoxicity against human QG-56 cells assessed as reduction in cell growth incubated for 24 hrs by MTT assay; type: functional, cell-based; settings: QG-56, 24 h
HT-29 [15] = assay: Cytotoxicity against human HT-29 assessed as inhibition of cell growth incubated for 48 hrs; type: functional, cell-based; settings: HT-29, 48 h
SK-MEL-28 [16] = assay: Cytotoxicity against human SK-MEL-28 assessed as inhibition of cell growth incubated for 48 hrs; type: functional, cell-based; settings: SK-MEL-28, 48 h
A549 [17] = assay: Cytotoxicity against human A549 assessed as inhibition of cell growth incubated for 48 hrs; type: functional, cell-based; settings: A549, 48 h

Compound: COc1cc2c(cc1O)CCN[C@@]21CS[C@@H]2c3c(OC(C)=O)c(C)c4c(c3[C@H](COC1=O)N1[C@@H]2[C@H]2c3c(cc(C)c(OC)c3O)C[C@@H]([C@@H]1O)N2C)OCO4
- IC50 (HT-29 [1]): 0.0005 µg/mL (≈ 0.000656 µM)
- IC50 (A549 [2]): 1.5 nM
- IC50 (ECV-304): 1.6 nM
- IC50 (A549 [3]): 0.0002 µg/mL (≈ 0.000263 µM)
- IC50 (SK-MEL-28 [4]): 0.005 µg/mL (≈ 0.00656 µM)
- IC50 (CAL-27): 0.9 nM
- IC50 (NCI-H929): 1.1 nM
- IC50 (P388 [5]): 200 nM

- IC50 (K562): 19900 nM
- IC50 (HL-60 [7]): 12100 nM
Compound: C=CC(C)(C)[C@@]12C[C@H]3C(=O)N[C@@H](Cc4ccc(O)cc4)C(=O)N3[C@@H]1N([C@H]1O[C@]3(C[C@@H]1NC(=O)/C=C/C(C)CC(C)CCCCCC)[C@@H]1O[C@@H]1[C@](O)(CC(C)=O)[C@@H]1O[C@@H]13)c1ccccc12 (stereo partly drawn)
- IC50 (MCF7): 8000 nM
- IC50 (BGC-823): 16600 nM
- IC50 (HeLa [6]): 17700 nM

Compound: CS[C@H]1C(=O)N2[C@H]3Nc4ccccc4[C@@]3(c3c[nH]c4ccccc34)[C@H](O)[C@]2(SC)C(=O)N1C [BIONECTIN C]
- EC50 (P388 [8]): 6.5 µg/mL (≈ 13.5 µM)

- IC50 (HL-60 [10]): 1730 nM
- IC50 (A549 [11]): 1370 nM
- IC50 (P388 [12]): 2860 nM
- IC50 (HeLa [13]): 3400 nM
- IC50 (Bel-7402): 3200 nM
Compound: CC(C)=CCC/C(C)=C/COc1ccc(C[C@@H]2NC(=O)[C@H](C)NC2=O)cc1
- IC50 [9]: 4600 nM

Compound: COC1=C(C)C(=O)C2=C(C1=O)[C@H]1[C@@H]3CC4=C(C(=O)C(OC)=C(C)C4=O)[C@H](COC(C)=O)N3[C@@H](O)[C@@H](C2)N1C
- IC50 (P388 [14]): 0.0125 µg/mL (≈ 0.0237 µM)
- IC50 (BC): 2.5 nM
- IC50 (HCT-116): 0.57 nM
- IC50 (DU-145): 0.49 nM
- IC50 (QG-56): 0.76 nM
- IC50 (HT-29 [15]): 0.0125 µg/mL (≈ 0.0237 µM)
- IC50 (SK-MEL-28 [16]): 0.0125 µg/mL (≈ 0.0237 µM)
- IC50 (A549 [17]): 0.0125 µg/mL (≈ 0.0237 µM)
